Article PMC12561408, “AI‐Driven De Novo Design of Ultra Long‐Acting GLP‐1 Receptor Agonists” (Advanced Science, 2025)

Legend:
[1] = rat, in vivo; cited from earlier work
Source text: According to a study by Novo Nordisk,^[ [39] ^] […] While the fatty acid chai ...

in vivo = conditions: male, SD, rat, 0.05 mg/kg; for level at 72 h: Plasma Conc. at 72 h; for level at 96 h: Plasma Conc. at 96 h
Protocol: B) half‐life (T1/2). C) the maximum plasma concentration (Cmax). […] F) time to Maximum Concentration (Tmax). […] Data were analyzed with the two‐sided Student's unpaired t test. ^* p < 0.05, ^** p < 0.01, ^*** p < 0.001.
Plasma samples were analyzed using LC‐MS/MS (Waters XEVO TQ‐XS), and pharmacokinetic parameters such as T1/2, Cmax, Tmax, AUC0‐t, and MRT0‐t were calculated using WinNonlin. The sample preparation and detailed information of LC‐MS/MS are shown in Table S5 (Supporting Information).

In the case of CC[C@H](C)[C@H](NC(=O)[C@H](Cc1ccccc1)NC(=O)[C@H](CCC(=O)O)NC(=O)[C@H](CCCCNC(=O)COCCOCCNC(=O)COCCOCCNC(=O)CC[C@H](NC(=O)CCCCCCCCCCCCCCCCC(=O)O)C(=O)O)NC(=O)[C@H](C)NC(=O)[C@H](C)NC(=O)[C@H](CCC(N)=O)NC(=O)CNC(=O)[C@H](CCC(=O)O)NC(=O)[C@H](CC(C)C)NC(=O)[C@H](Cc1ccc(O)cc1)NC(=O)[C@H](CO)NC(=O)[C@H](CO)NC(=O)[C@@H](NC(=O)[C@H](CC(=O)O)NC(=O)[C@H](CO)NC(=O)[C@@H](NC(=O)[C@H](Cc1ccccc1)NC(=O)[C@@H](NC(=O)CNC(=O)[C@H](CCC(=O)O)NC(=O)C(C)(C)NC(=O)[C@@H](N)Cc1cnc[nH]1)[C@@H](C)O)[C@@H](C)O)C(C)C)C(=O)N[C@@H](C)C(=O)N[C@@H](Cc1c[nH]c2ccccc12)C(=O)N[C@@H](CC(C)C)C(=O)N[C@H](C(=O)N[C@@H](CCCNC(=N)N)C(=O)NCC(=O)N[C@@H](CCCNC(=N)N)C(=O)NCC(=O)O)C(C)C [Semaglutide], the “half‐life in rats (literature)” value [1] is listed as 7 to 8 h, the level at 2 h (in vivo; Plasma Conc. at 2 h, animal 1) is listed as 241 ng/mL and the level at 2 h (in vivo; Plasma Conc. at 2 h, animal 2) is listed as 262 ng/mL. For the same compound, the level at 2 h (in vivo; Plasma Conc. at 2 h, animal 3) was 272 ng/mL, the level at 4 h (in vivo; Plasma Conc. at 4 h, animal 1) was 308 ng/mL and the level at 4 h (in vivo; Plasma Conc. at 4 h, animal 2) was 275 ng/mL. For the same compound, the level at 4 h (in vivo; Plasma Conc. at 4 h, animal 3) was 339 ng/mL, the level at 8 h (in vivo; Plasma Conc. at 8 h, animal 1) was 321 ng/mL and the level at 8 h (in vivo; Plasma Conc. at 8 h, animal 2) was 327 ng/mL. It also gave a level at 8 h (in vivo; Plasma Conc. at 8 h, animal 3) of 341 ng/mL, a level at 12 h (in vivo; Plasma Conc. at 12 h, animal 1) of 283 ng/mL and a level at 12 h (in vivo; Plasma Conc. at 12 h, animal 2) of 278 ng/mL. For the same compound, the level at 24 h (in vivo; Plasma Conc. at 24 h, animal 1) was 133 ng/mL, the level at 24 h (in vivo; Plasma Conc. at 24 h, animal 2) was 135 ng/mL and the level at 48 h (in vivo; Plasma Conc. at 48 h, animal 1) was 12.9 ng/mL. It also gave a level at 48 h (in vivo; Plasma Conc. at 48 h, animal 2) of 13.4 ng/mL, a level at 72 h (in vivo; animal 1) of 1.5 ng/mL and a level at 72 h (in vivo; animal 2) of 1.8 ng/mL. It also gave a level at 96 h (in vivo; animal 1) of 1 ng/mL, a level at 96 h (in vivo; animal 2) of 0.3 ng/mL and a level at 2 h (in vivo; Plasma concentration at 2 h (mean)) of 258 ng/mL. It also gave a level at 4 h (in vivo; Plasma concentration at 4 h (mean)) of 307 ng/mL, a level at 8 h (in vivo; Plasma concentration at 8 h (mean)) of 330 ng/mL and a level at 12 h (in vivo; Plasma concentration at 12 h (mean)) of 280 ng/mL. The level at 24 h (in vivo; Plasma concentration at 24 h (mean)) was 132 ng/mL and the level at 48 h (in vivo; Plasma concentration at 48 h (mean)) was 13.9 ng/mL.
